Measured values as given in PubChem BioAssay (NCI).
Values joined by “and” are separate entries in the source; they are usually repeats but may differ in a detail not shown here. Identical values can stand only once.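 These data come from cells grown in 96-well plates and exposed to compound for 48 hours at five concentrations. GI50 = concentration required for 50% inhibition of growth. TGI: concentration producing complete growth inhibition.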

Key:
Assay in all cases: NCI tumour cell line growth inhibition, 48 h
[1] = tested on: SW-620 colon
[2] = tested on: OVCAR-3 ovarian
[3] = tested on: SR leukemia
[4] = tested on: KM20L2 colon
[5] = tested on: M19-MEL melanoma
[6] = tested on: NCI-H460 lung
[7] = tested on: SK-MEL-5 melanoma
[8] = tested on: SNB-75 CNS
[9] = tested on: RXF 393 renal
[10] = tested on: UACC-62 melanoma
[11] = tested on: TK-10 renal
[12] = tested on: SNB-19 CNS
[13] = tested on: DMS 273 small cell lung
[14] = tested on: CCRF-CEM leukemia
[15] = tested on: SF-295 CNS
[16] = tested on: UACC-257 melanoma
[17] = tested on: EKVX NSCLC
[18] = tested on: P388/ADR leukemia
[19] = tested on: K-562 leukemia
[20] = tested on: NCI-H23 lung
[21] = tested on: M14 melanoma
[22] = tested on: OVCAR-4 ovarian
[23] = tested on: SK-MEL-2 melanoma
[24] = tested on: SK-OV-3 ovarian
[25] = tested on: LOX IMVI melanoma
[26] = tested on: DLD-1 colon
[27] = tested on: BT-549 breast
[28] = tested on: HL-60(TB) leukemia
[29] = tested on: SN12K1 renal
[30] = tested on: A549 NSCLC
[31] = tested on: RPMI-8226 leukemia
[32] = tested on: HOP-92 NSCLC
[33] = tested on: OVCAR-8 ovarian
[34] = tested on: MDA-MB-435
[35] = tested on: IGROV1 ovarian
[36] = tested on: HCC-2998 colon
[37] = tested on: SNB-78 CNS
[38] = tested on: P388 leukemia
[39] = tested on: ACHN renal
[40] = tested on: HOP-18 NSCLC
[41] = tested on: NCI-H226 lung
[42] = tested on: COLO 205 colon
[43] = tested on: HT29 colon
[44] = tested on: NCI-H522 lung
[45] = tested on: HCT-116 colon
[46] = tested on: MOLT-4 leukemia
[47] = tested on: A498 renal
[48] = tested on: DMS 114 small cell lung
[49] = tested on: CAKI-1 renal
[50] = tested on: SF-539 CNS
[51] = tested on: UO-31 renal
[52] = tested on: 786-0 renal
[53] = tested on: LXFL 529 NSCLC
[54] = tested on: SN12C renal
[55] = tested on: MALME-3M melanoma
[56] = tested on: SF-268 CNS
[57] = tested on: HCT-15 colon
[58] = tested on: DU-145 prostate
[59] = tested on: HOP-62 NSCLC
[60] = tested on: RXF-631 renal
[61] = tested on: KM12 colon
[62] = tested on: MDA-N
[63] = tested on: OVCAR-5 ovarian
[64] = tested on: U251 CNS

COc1cc(NS(C)(=O)=O)ccc1Nc1c2ccccc2nc2ccccc12
GI50 [1]: 1490 nM and 242 nM and 351 nM
GI50 [2]: 4000 nM
TGI [2]: 7.66 µM [middle of 8 runs]
GI50 [3]: 47.5 nM and 24.5 nM
GI50 [4]: 2180 nM and 3410 nM
TGI [4]: 12100 nM and 15300 nM and 5780 nM
GI50 [5]: 1540 nM and 5950 nM
TGI [5]: 17600 nM and 30800 nM and 8440 nM
GI50 [6]: 58.7 nM and 33.8 nM and 42.5 nM
GI50 [7]: 618 nM and 282 nM
GI50 [8]: 221 nM and 335 nM and 341 nM
GI50 [9]: 3370 nM and 2180 nM and 2230 nM
GI50 [10]: 491 nM and 951 nM and 705 nM
GI50 [11]: 4720 nM and 854 nM and 911 nM
GI50 [12]: 528 nM and 464 nM and 495 nM
GI50 [13]: 53.5 nM and 128 nM
TGI [13]: 2720 nM and 12000 nM and 2020 nM
GI50 [14]: 91.8 nM and 182 nM and 105 nM
GI50 [15]: 405 nM and 166 nM and 136 nM
GI50 [16]: 11800 nM and 5930 nM
GI50 [17]: 4770 nM and 3010 nM and 2840 nM
TGI [18]: 5510 nM
GI50 [19]: 1940 nM and 1870 nM and 624 nM
GI50 [20]: 550 nM and 377 nM and 368 nM
GI50 [21]: 526 nM and 397 nM and 447 nM
GI50 [22]: 12600 nM and 5080 nM
GI50 [23]: 18000 nM and 4550 nM and 5730 nM
GI50 [24]: 557 nM and 239 nM and 288 nM
GI50 [25]: 351 nM and 306 nM and 310 nM
GI50 [26]: 3580 nM and 15300 nM
TGI [26]: 16200 nM and 35100 nM and 7540 nM
GI50 [27]: 3.14 µM [middle of 4 runs]
GI50 [28]: 298 nM and 180 nM and < 37.9 nM
TGI [29]: 4040 nM
GI50 [30]: 198 nM and 63.5 nM and 63.7 nM
GI50 [31]: 4070 nM and 2000 nM
GI50 [32]: 2590 nM and 604 nM
GI50 [33]: 1330 nM and 904 nM and 1030 nM
GI50 [34]: 3040 nM and 11000 nM and 7260 nM
GI50 [35]: 1590 nM and 1440 nM and 826 nM
GI50 [36]: 2400 nM and 2190 nM and 2340 nM
GI50 [37]: 5790 nM and 10600 nM
TGI [37]: 17700 nM and 36500 nM and 14400 nM
TGI [38]: 391 nM
GI50 [39]: 311 nM and 194 nM and 183 nM
GI50 [40]: 878 nM
TGI [40]: 5230 nM and 3510 nM
GI50 [41]: 256 nM and 260 nM and 220 nM
GI50 [42]: 715 nM and 1110 nM
GI50 [43]: 1370 nM and 888 nM and 991 nM
GI50 [44]: 3270 nM and 552 nM
GI50 [45]: 820 nM and 368 nM and 424 nM
GI50 [46]: 181 nM and 45.3 nM and < 25 nM
GI50 [47]: 1610 nM and 237 nM and 405 nM
GI50 [48]: 114 nM and 98.1 nM
TGI [48]: 6540 nM and 1520 nM and 4560 nM
GI50 [49]: 550 nM and 213 nM and 308 nM
GI50 [50]: 531 nM and 360 nM and 410 nM
TGI [50]: 2.27 µM [middle of 7 runs]
GI50 [51]: 1390 nM and 288 nM and 231 nM
GI50 [52]: 458 nM and 279 nM and 270 nM
TGI [52]: 1.77 µM [middle of 8 runs]
GI50 [53]: 5370 nM and 5420 nM
TGI [53]: 17900 nM and 22700 nM and 8920 nM
GI50 [54]: 432 nM and 273 nM and 307 nM
GI50 [55]: 1270 nM and 511 nM and 515 nM
GI50 [56]: 1140 nM and 483 nM and 511 nM
GI50 [57]: 1700 nM and 1380 nM and 1450 nM
TGI [58]: 2.59 µM [middle of 5 runs]
GI50 [59]: 551 nM and 221 nM and 198 nM
GI50 [60]: 388 nM and 431 nM
TGI [60]: 4300 nM and 2930 nM and 5340 nM
GI50 [61]: 1710 nM and 1680 nM
TGI [61]: 11.4 µM [middle of 8 runs]
GI50 [62]: 4000 nM
TGI [62]: 7410 nM and 16600 nM and 11500 nM
GI50 [63]: 8100 nM and 5640 nM and 6810 nM
GI50 [64]: 528 nM and 350 nM and 358 nM
